Numbers after ± are expanded uncertainties.
Assay: xn = mol fraction of the nth substance listed
Details: for surface tension liquid-gas: Ring tensiometer; for mass density: 101 kPa, Liquid

SMILES: CC#N [acetonitrile] + CCCO
- surface tension liquid-gas (278.15 K, x1 = 0.1255): 25.2 ± 0.4 mN/m
- surface tension liquid-gas (278.15 K, x1 = 0.2452): 25.4 ± 0.4 mN/m
- surface tension liquid-gas (278.15 K, x1 = 0.3466): 25.8 ± 0.4 mN/m
- surface tension liquid-gas (278.15 K, x1 = 0.4995): 26.5 ± 0.4 mN/m
- surface tension liquid-gas (278.15 K, x1 = 0.6449): 27.4 ± 0.4 mN/m
- surface tension liquid-gas (278.15 K, x1 = 0.7492): 28.1 ± 0.4 mN/m
- surface tension liquid-gas (278.15 K, x1 = 0.8645): 29.1 ± 0.5 mN/m
- surface tension liquid-gas (278.15 K, x1 = 0.9101): 29.5 ± 0.5 mN/m
- surface tension liquid-gas (278.15 K, x1 = 1): 30.5 ± 0.5 mN/m
- mass density (278.15 K, x1 = 0.1255): 813.41 ± 1.8 kg/m3
- mass density (278.15 K, x1 = 0.2452): 810.66 ± 1.8 kg/m3
- mass density (278.15 K, x1 = 0.3466): 808.33 ± 1.8 kg/m3
- mass density (278.15 K, x1 = 0.4995): 804.81 ± 1.9 kg/m3
- mass density (278.15 K, x1 = 0.6449): 801.47 ± 1.9 kg/m3
- mass density (278.15 K, x1 = 0.7492): 799.07 ± 1.9 kg/m3
- mass density (278.15 K, x1 = 0.8645): 796.42 ± 1.9 kg/m3
- mass density (278.15 K, x1 = 0.9101): 795.37 ± 1.9 kg/m3
- mass density (278.15 K, x1 = 1): 793.3 ± 1.9 kg/m3
- surface tension liquid-gas (283.15 K, x1 = 0.1255): 24.8 ± 0.4 mN/m
- surface tension liquid-gas (283.15 K, x1 = 0.2452): 25 ± 0.4 mN/m
- surface tension liquid-gas (283.15 K, x1 = 0.3466): 25.4 ± 0.4 mN/m
- surface tension liquid-gas (283.15 K, x1 = 0.4995): 26.1 ± 0.4 mN/m
- surface tension liquid-gas (283.15 K, x1 = 0.6449): 27 ± 0.4 mN/m
- surface tension liquid-gas (283.15 K, x1 = 0.7492): 27.7 ± 0.4 mN/m
- surface tension liquid-gas (283.15 K, x1 = 0.8645): 28.7 ± 0.5 mN/m
- surface tension liquid-gas (283.15 K, x1 = 0.9101): 29.1 ± 0.5 mN/m
- surface tension liquid-gas (283.15 K, x1 = 1): 30.1 ± 0.5 mN/m
- mass density (283.15 K, x1 = 0.1255): 809.44 ± 1.8 kg/m3
- mass density (283.15 K, x1 = 0.2452): 806.61 ± 1.8 kg/m3
- mass density (283.15 K, x1 = 0.3466): 804.22 ± 1.9 kg/m3
- mass density (283.15 K, x1 = 0.4995): 800.61 ± 1.9 kg/m3
- mass density (283.15 K, x1 = 0.6449): 797.18 ± 1.9 kg/m3
- mass density (283.15 K, x1 = 0.7492): 794.72 ± 1.9 kg/m3
- mass density (283.15 K, x1 = 0.8645): 792 ± 1.9 kg/m3
- mass density (283.15 K, x1 = 0.9101): 790.92 ± 1.9 kg/m3
- mass density (283.15 K, x1 = 1): 788.8 ± 1.9 kg/m3
- surface tension liquid-gas (288.15 K, x1 = 0.1255): 24.4 ± 0.4 mN/m
- surface tension liquid-gas (288.15 K, x1 = 0.2452): 24.7 ± 0.4 mN/m
- surface tension liquid-gas (288.15 K, x1 = 0.3466): 25 ± 0.4 mN/m
- surface tension liquid-gas (288.15 K, x1 = 0.4995): 25.7 ± 0.4 mN/m
- surface tension liquid-gas (288.15 K, x1 = 0.6449): 26.6 ± 0.4 mN/m
- surface tension liquid-gas (288.15 K, x1 = 0.7492): 27.3 ± 0.4 mN/m
- surface tension liquid-gas (288.15 K, x1 = 0.8645): 28.3 ± 0.4 mN/m
- surface tension liquid-gas (288.15 K, x1 = 0.9101): 28.7 ± 0.5 mN/m
- surface tension liquid-gas (288.15 K, x1 = 1): 29.7 ± 0.5 mN/m
- mass density (288.15 K, x1 = 0.1255): 805.55 ± 1.8 kg/m3
- mass density (288.15 K, x1 = 0.2452): 802.64 ± 1.9 kg/m3
- mass density (288.15 K, x1 = 0.3466): 800.18 ± 1.9 kg/m3
- mass density (288.15 K, x1 = 0.4995): 796.46 ± 1.9 kg/m3
- mass density (288.15 K, x1 = 0.6449): 792.93 ± 1.9 kg/m3
- mass density (288.15 K, x1 = 0.7492): 790.39 ± 1.9 kg/m3
- mass density (288.15 K, x1 = 0.8645): 787.59 ± 1.9 kg/m3
- mass density (288.15 K, x1 = 0.9101): 786.48 ± 2 kg/m3
- mass density (288.15 K, x1 = 1): 784.3 ± 2 kg/m3
- surface tension liquid-gas (293.15 K, x1 = 0.1255): 24 ± 0.4 mN/m
- surface tension liquid-gas (293.15 K, x1 = 0.2452): 24.3 ± 0.4 mN/m
- surface tension liquid-gas (293.15 K, x1 = 0.3466): 24.6 ± 0.4 mN/m
- surface tension liquid-gas (293.15 K, x1 = 0.4995): 25.3 ± 0.4 mN/m
- surface tension liquid-gas (293.15 K, x1 = 0.6449): 26.2 ± 0.4 mN/m
- surface tension liquid-gas (293.15 K, x1 = 0.7492): 26.9 ± 0.4 mN/m
- surface tension liquid-gas (293.15 K, x1 = 0.8645): 27.9 ± 0.4 mN/m
- surface tension liquid-gas (293.15 K, x1 = 0.9101): 28.3 ± 0.4 mN/m
- surface tension liquid-gas (293.15 K, x1 = 1): 29.3 ± 0.5 mN/m
- mass density (293.15 K, x1 = 0.1255): 799.41 ± 1.9 kg/m3
- mass density (293.15 K, x1 = 0.2452): 796.56 ± 1.9 kg/m3
- mass density (293.15 K, x1 = 0.3466): 794.15 ± 1.9 kg/m3
- mass density (293.15 K, x1 = 0.4995): 790.51 ± 1.9 kg/m3
- mass density (293.15 K, x1 = 0.6449): 787.05 ± 1.9 kg/m3
- mass density (293.15 K, x1 = 0.7492): 784.57 ± 2 kg/m3
- mass density (293.15 K, x1 = 0.8645): 781.82 ± 2 kg/m3
- mass density (293.15 K, x1 = 0.9101): 780.74 ± 2 kg/m3
- mass density (293.15 K, x1 = 1): 778.3 ± 2 kg/m3
- surface tension liquid-gas (298.15 K, x1 = 0.1255): 23.6 ± 0.4 mN/m
- surface tension liquid-gas (298.15 K, x1 = 0.2452): 23.9 ± 0.4 mN/m
- surface tension liquid-gas (298.15 K, x1 = 0.3466): 24.2 ± 0.4 mN/m
- surface tension liquid-gas (298.15 K, x1 = 0.4995): 24.9 ± 0.4 mN/m
- surface tension liquid-gas (298.15 K, x1 = 0.6449): 25.8 ± 0.4 mN/m
- surface tension liquid-gas (298.15 K, x1 = 0.7492): 26.6 ± 0.4 mN/m
- surface tension liquid-gas (298.15 K, x1 = 0.8645): 27.5 ± 0.4 mN/m
- surface tension liquid-gas (298.15 K, x1 = 0.9101): 27.9 ± 0.4 mN/m
- surface tension liquid-gas (298.15 K, x1 = 1): 28.9 ± 0.5 mN/m
- mass density (298.15 K, x1 = 0.1255): 796.74 ± 1.9 kg/m3
- mass density (298.15 K, x1 = 0.2452): 794.01 ± 1.9 kg/m3
- mass density (298.15 K, x1 = 0.3466): 791.7 ± 1.9 kg/m3
- mass density (298.15 K, x1 = 0.4995): 788.21 ± 1.9 kg/m3
- mass density (298.15 K, x1 = 0.6449): 784.9 ± 2 kg/m3
- mass density (298.15 K, x1 = 0.7492): 782.52 ± 2 kg/m3
- mass density (298.15 K, x1 = 0.8645): 779.89 ± 2 kg/m3
- mass density (298.15 K, x1 = 0.9101): 778.85 ± 2 kg/m3
- mass density (298.15 K, x1 = 1): 776.75 ± 2 kg/m3
- surface tension liquid-gas (303.15 K, x1 = 0.1255): 23.2 ± 0.4 mN/m
- surface tension liquid-gas (303.15 K, x1 = 0.2452): 23.5 ± 0.4 mN/m
- surface tension liquid-gas (303.15 K, x1 = 0.3466): 23.8 ± 0.4 mN/m
- surface tension liquid-gas (303.15 K, x1 = 0.4995): 24.5 ± 0.4 mN/m
- surface tension liquid-gas (303.15 K, x1 = 0.6449): 25.4 ± 0.4 mN/m
- surface tension liquid-gas (303.15 K, x1 = 0.7492): 26.2 ± 0.4 mN/m
- surface tension liquid-gas (303.15 K, x1 = 0.8645): 27.1 ± 0.4 mN/m
- surface tension liquid-gas (303.15 K, x1 = 0.9101): 27.5 ± 0.4 mN/m
- surface tension liquid-gas (303.15 K, x1 = 1): 28.5 ± 0.4 mN/m
- mass density (303.15 K, x1 = 0.1255): 792.49 ± 1.9 kg/m3
- mass density (303.15 K, x1 = 0.2452): 789.62 ± 1.9 kg/m3
- mass density (303.15 K, x1 = 0.3466): 787.18 ± 1.9 kg/m3
- mass density (303.15 K, x1 = 0.4995): 783.51 ± 2 kg/m3
- mass density (303.15 K, x1 = 0.6449): 780.02 ± 2 kg/m3
- mass density (303.15 K, x1 = 0.7492): 777.52 ± 2 kg/m3
- mass density (303.15 K, x1 = 0.8645): 774.75 ± 2 kg/m3
- mass density (303.15 K, x1 = 0.9101): 773.66 ± 2 kg/m3
- mass density (303.15 K, x1 = 1): 771.5 ± 2 kg/m3
- surface tension liquid-gas (308.15 K, x1 = 0.1255): 22.8 ± 0.4 mN/m
- surface tension liquid-gas (308.15 K, x1 = 0.2452): 23.1 ± 0.4 mN/m
- surface tension liquid-gas (308.15 K, x1 = 0.3466): 23.4 ± 0.4 mN/m
- surface tension liquid-gas (308.15 K, x1 = 0.4995): 24.2 ± 0.4 mN/m
- surface tension liquid-gas (308.15 K, x1 = 0.6449): 25 ± 0.4 mN/m
- surface tension liquid-gas (308.15 K, x1 = 0.7492): 25.8 ± 0.4 mN/m
- surface tension liquid-gas (308.15 K, x1 = 0.8645): 26.7 ± 0.4 mN/m
- surface tension liquid-gas (308.15 K, x1 = 0.9101): 27.1 ± 0.4 mN/m
- surface tension liquid-gas (308.15 K, x1 = 1): 28.1 ± 0.4 mN/m
- mass density (308.15 K, x1 = 0.1255): 789.47 ± 1.9 kg/m3
- mass density (308.15 K, x1 = 0.2452): 786.3 ± 2 kg/m3
- mass density (308.15 K, x1 = 0.3466): 783.62 ± 2 kg/m3
- mass density (308.15 K, x1 = 0.4995): 779.56 ± 2 kg/m3
- mass density (308.15 K, x1 = 0.6449): 775.71 ± 2 kg/m3
- mass density (308.15 K, x1 = 0.7492): 772.95 ± 2 kg/m3
- mass density (308.15 K, x1 = 0.8645): 769.89 ± 2 kg/m3
- mass density (308.15 K, x1 = 0.9101): 768.68 ± 2.1 kg/m3
- mass density (308.15 K, x1 = 1): 766.3 ± 2.1 kg/m3
- surface tension liquid-gas (313.15 K, x1 = 0.1255): 22.4 ± 0.4 mN/m
- surface tension liquid-gas (313.15 K, x1 = 0.2452): 22.7 ± 0.4 mN/m
- surface tension liquid-gas (313.15 K, x1 = 0.3466): 23 ± 0.4 mN/m
- surface tension liquid-gas (313.15 K, x1 = 0.4995): 23.8 ± 0.4 mN/m
- surface tension liquid-gas (313.15 K, x1 = 0.6449): 24.6 ± 0.4 mN/m
- surface tension liquid-gas (313.15 K, x1 = 0.7492): 25.4 ± 0.4 mN/m
- surface tension liquid-gas (313.15 K, x1 = 0.8645): 26.3 ± 0.4 mN/m
- surface tension liquid-gas (313.15 K, x1 = 0.9101): 26.8 ± 0.4 mN/m
- surface tension liquid-gas (313.15 K, x1 = 1): 27.7 ± 0.4 mN/m
- mass density (313.15 K, x1 = 0.1255): 783.74 ± 2 kg/m3
- mass density (313.15 K, x1 = 0.2452): 780.62 ± 2 kg/m3
- mass density (313.15 K, x1 = 0.3466): 777.99 ± 2 kg/m3
- mass density (313.15 K, x1 = 0.4995): 774.01 ± 2 kg/m3
- mass density (313.15 K, x1 = 0.6449): 770.23 ± 2 kg/m3
- mass density (313.15 K, x1 = 0.7492): 767.52 ± 2.1 kg/m3
- mass density (313.15 K, x1 = 0.8645): 764.52 ± 2.1 kg/m3
- mass density (313.15 K, x1 = 0.9101): 763.34 ± 2.1 kg/m3
- mass density (313.15 K, x1 = 1): 761 ± 2.1 kg/m3

Reference: the NIST ThermoML archive (doi:10.1007/s10765-009-0581-7)
